Reference: PubChem BioAssay AID1259408 (Genetic Toxicology Data Bank (GENE-TOX), 2018)
Calls of active or inactive are those of the source. How the calls were made is not given here.

Tested on: GENE-TOX genotoxicity assays, various organisms and cells
Assay: GENE-TOX mutagenicity studies
Conditions: for call: Assay Type: In vivo carcinogenicity studies
[1] = Species/Cell Type: Bacillus subtilis (H17 vs M45), Assay Type: Rec-assay, spot test, DNA effects (bacterial DNA repair), Assay Code: REW+, Evaluation Type: Evaluation A (Pre-1980)
[2] = Species/Cell Type: Human, Assay Type: Sister-chromatid exchange (SCE) in vitro, Assay Code: SC1+D, Dose Response: With dose response, Evaluation Type: Evaluation B (Post-1980)
[3] = Species/Cell Type: Nonhuman, Assay Code: CCGT, Evaluation Type: Evaluation A (Pre-1980)
[4] = Species/Cell Type: Nonhuman, Assay Type: Sister-chromatid exchange (SCE) in vitro, Assay Code: SC2-, Evaluation Type: Evaluation B (Post-1980)
[5] = Species/Cell Type: Rodents, Sex: Male, Assay Type: Dominant lethal test, Assay Code: DLT-, Evaluation Type: Evaluation A (Pre-1980)
[6] = Species/Cell Type: Salmonella typhimurium (one or more of the five standard strains: TA98, TA100, TA1535, TA1537, and TA1538), Assay Type: Histidine reverse gene mutation, Ames assay, Assay Code: SAL-, Evaluation Type: Evaluation A (Pre-1980)
[7] = Species/Cell Type: Salmonella typhimurium (one or more of the five standard strains: TA98, TA100, TA1535, TA1537, and TA1538), Assay Type: Histidine reverse gene mutation, Ames assay, Assay Code: SAL+*, Activation: With metabolic activation, Evaluation Type: Evaluation A (Pre-1980)
[8] = Species/Cell Type: Drosophila melanogaster, Assay Type: Aneuploidy, whole sex chromosome loss, chromosome aberrations, Assay Code: DACT, Evaluation Type: Evaluation A (Pre-1980)
[9] = Species/Cell Type: Drosophila melanogaster, Assay Type: Sex-linked recessive lethal gene mutation, Assay Code: SRL+, Evaluation Type: Evaluation A (Pre-1980)
[10] = Species/Cell Type: Nonhuman, Assay Code: CCG+, Evaluation Type: Evaluation A (Pre-1980)
[11] = Species/Cell Type: Nonhuman, Assay Type: Sister-chromatid exchange (SCE) in vitro, Assay Code: SC2+D, Dose Response: With dose response, Evaluation Type: Evaluation B (Post-1980)
[12] = Species/Cell Type: Salmonella typhimurium (one or more of the five standard strains: TA98, TA100, TA1535, TA1537, and TA1538), Assay Type: Histidine reverse gene mutation, Ames assay, Assay Code: SALT, Evaluation Type: Evaluation A (Pre-1980)
[13] = Species/Cell Type: Escherichia coli polA (W3119 vs P3478), Assay Type: Rec-assay, DNA effects (bacterial DNA repair), Assay Code: RE1T, Evaluation Type: Evaluation A (Pre-1980)

`O=C1C=C2C(=CCOC2O)O1` (stereo not drawn) was tested, and the mutagenic call [1] was “active; positive”, the mutagenic call (Species/Cell Type: Human lymphocytes, Assay Type: Sister-chromatid exchange (SCE) in vitro, Assay Code: SCL+D, Dose Response: With dose response, Evaluation Type: Evaluation B (Post-1980)) was “active; positive” and the mutagenic call [2] was “active; positive”. The mutagenic call (Species/Cell Type: Nonhuman, Assay Type: Chromosome aberrations in vitro, Assay Code: CY&+, Evaluation Type: Evaluation A (Pre-1980)) was “active; positive”, the call [3] was “no conclusion” and the mutagenic call [4] was “inactive; negative”. For the same compound, the mutagenic call [5] was “inactive; negative”, the mutagenic call (Species/Cell Type: Saccharomyces cerevisiae, Assay Type: Mitotic recombination or gene conversion, Assay Code: YEH+/-*, Activation: With metabolic activation, Evaluation Type: Evaluation A (Pre-1980)) was “inactive; positive without activation, negative with activation” and the mutagenic call [6] was “inactive; negative”.
`O=C1c2ccccc2C(=O)c2c1ccc(OCCCS(=O)(=O)O)c2O` was tested, and the mutagenic call [7] was “active; positive”.
With `O=NN1CCCCC1` the mutagenic call (Species/Cell Type: Drosophila melanogaster, Assay Type: Aneuploidy, partial sex chromosome loss, chromosome aberrations, Assay Code: DAPT, Evaluation Type: Evaluation A (Pre-1980)) was “no conclusion”, the mutagenic call [8] was “no conclusion” and the mutagenic call [9] was “active; positive”. The mutagenic call (Species/Cell Type: Escherichia coli polA (W3119 vs P3478), Assay Type: Rec-assay, DNA effects (bacterial DNA repair), Assay Code: RE1+, Evaluation Type: Evaluation A (Pre-1980)) was “active; positive”, the call [10] was “active; positive” and the mutagenic call (Species/Cell Type: Nonhuman, Assay Type: Sister-chromatid exchange (SCE) in vivo, Assay Code: SC3+, Evaluation Type: Evaluation B (Post-1980)) was “active; positive”. For the same compound, the mutagenic call (Species/Cell Type: Saccharomyces cerevisiae, Assay Type: Forward gene mutation, Assay Code: YEF+*, Activation: With metabolic activation, Evaluation Type: Evaluation A (Pre-1980)) was “active; positive”, the mutagenic call (Species/Cell Type: Saccharomyces cerevisiae, Assay Type: Reverse gene mutation, Assay Code: YER+*, Activation: With metabolic activation, Evaluation Type: Evaluation A (Pre-1980)) was “active; positive” and the mutagenic call [7] was “active; positive”. For the same compound, the mutagenic call (Species/Cell Type: Syrian hamster embryo (SHE) cells, Assay Type: Cell transformation, clonal assay, Assay Code: CTC+, Evaluation Type: Evaluation A (Pre-1980)) was “active; positive”.
`O=S1OCC2C(CO1)C1(Cl)C(Cl)=C(Cl)C2(Cl)C1(Cl)Cl` (stereo not drawn) was tested, and the mutagenic call (Species/Cell Type: Mammalian polychromatic erythrocytes, Assay Type: Micronucleus test, chromosome aberrations, Assay Code: MNTT, Evaluation Type: Evaluation B (Post-1980)) was “no conclusion”.
In the case of `Cc1cc(N(CCCl)CCCl)ccc1N=Nc1ccccc1C(=O)O`, the mutagenic call [9] is reported as “active; positive”.
For `O=C1c2ccccc2C(=O)c2c1ccc(O[C@@H]1O[C@H](CO)[C@@H](O)[C@H](O)[C@H]1O)c2O`, the mutagenic call [7] was “active; positive”.
For `c1ccc2c(c1)Cc1ccccc1-2`, the mutagenic call (Species/Cell Type: Nonhuman, Assay Type: Sister-chromatid exchange (SCE) in vivo, Assay Code: SC3T, Evaluation Type: Evaluation B (Post-1980)) was “no conclusion” and the mutagenic call [6] was “inactive; negative”.
`Cn1c(=O)c2c(ncn2CC(O)CO)n(C)c1=O` (stereo not drawn) was tested, and the mutagenic call (Species/Cell Type: Human lymphocytes, Assay Type: Sister-chromatid exchange (SCE) in vitro, Assay Code: SCLT, Evaluation Type: Evaluation B (Post-1980)) was “no conclusion” and the mutagenic call (Species/Cell Type: Human, Assay Type: Sister-chromatid exchange (SCE) in vitro, Assay Code: SC1T, Evaluation Type: Evaluation B (Post-1980)) was “no conclusion”.
For `O=CONC(=O)c1ccc2ccccc2c1`, the mutagenic call [11] was “active; positive”.
`O=c1[nH]c(=O)n([C@H]2C[C@H](O)[C@@H](CO)O2)cc1/C=C/C(F)(F)F` was tested, and the mutagenic call [2] was “active; positive”.
`Cc1ccc2cc3c(cc(O)c4ccccc43)c3c2c1CC3` was tested, and the mutagenic call (Species/Cell Type: Mouse prostate cells, Assay Type: Cell transformation, Assay Code: CTM+, Evaluation Type: Evaluation A (Pre-1980)) was “active; positive”.
In the case of `COc1c2occc2c(OC)c2c(=O)cc(C)oc12`, the mutagenic call (Species/Cell Type: Human, Assay Type: Sister-chromatid exchange (SCE) in vitro, Assay Code: SC1T, Evaluation Type: Evaluation A (Pre-1980)) is reported as “no conclusion”.
With `CCn1c2ccccc2c2cc(N)ccc21` the call [10] was “active; positive”.
For `O=[N+]([O-])c1ccc2ccc3cc4ccccc4c4ccc1c2c34`, the mutagenic call (Species/Cell Type: Chinese hamster ovary (CHO) cells, Assay Type: Forward gene mutation at the HPRT locus, Assay Code: CHO+*, Activation: With metabolic activation, Evaluation Type: Evaluation B (Post-1980)) was “active; positive”.
With `CCCCNC(=O)OCC` the call [3] was “no conclusion” and the mutagenic call (Species/Cell Type: Nonhuman, Assay Type: Sister-chromatid exchange (SCE) in vitro, Assay Code: SC2-, Evaluation Type: Evaluation A (Pre-1980)) was “inactive; negative”.
For `OCCO`, the mutagenic call (Species/Cell Type: Drosophila melanogaster, Assay Type: Aneuploidy, sex chromosome gain, chromosome aberrations, Assay Code: DAGT, Evaluation Type: Evaluation A (Pre-1980)) was “no conclusion”, the mutagenic call [8] was “no conclusion” and the mutagenic call (Species/Cell Type: Neurospora crassa, Assay Type: Aneuploidy, chromosome aberrations, Assay Code: NEN-, Evaluation Type: Evaluation A (Pre-1980)) was “inactive; negative”. For the same compound, the mutagenic call [6] was “inactive; negative” and the mutagenic call (Species/Cell Type: Syrian hamster embryo (SA7/SHE) cells, Assay Type: Cell transformation, viral enhanced, Assay Code: CT7-, Evaluation Type: Evaluation A (Pre-1980)) was “inactive; negative”.
In the case of `CCN(CCNc1ccc(CO)c2sc3ccccc3c(=O)c12)CC(C)(C)O`, the mutagenic call (Species/Cell Type: Mouse lymphoma (L5178Y) cells, Assay Type: Forward gene mutation at the thymidine kinase (TK) locus, chromosome aberrations, Assay Code: L51+, Evaluation Type: Evaluation A (Pre-1980)) is reported as “active; positive”.
For `[Cl][Cd][Cl]`, the mutagenic call [1] was “active; positive”, the mutagenic call (Species/Cell Type: Drosophila melanogaster, Assay Type: Aneuploidy, whole sex chromosome loss, chromosome aberrations, Assay Code: DAC+, Evaluation Type: Evaluation A (Pre-1980)) was “active; positive” and the mutagenic call (Species/Cell Type: Human lymphocytes or leukocytes, Assay Type: Chromosome aberrations in vitro, Assay Code: CY7-, Evaluation Type: Evaluation A (Pre-1980)) was “inactive; negative”. For the same compound, the mutagenic call (Species/Cell Type: Mammalian polychromatic erythrocytes, Assay Type: Micronucleus test, chromosome aberrations, Assay Code: MNT-, Evaluation Type: Evaluation B (Post-1980)) was “inactive; negative”, the mutagenic call (Species/Cell Type: Mammalian polychromatic erythrocytes, Assay Type: Micronucleus test, chromosome aberrations, Assay Code: MNTT, Evaluation Type: Evaluation A (Pre-1980)) was “no conclusion” and the mutagenic call (Species/Cell Type: Mouse, Sex: Male, Assay Type: Sperm morphology, Assay Code: SPIT, Evaluation Type: Evaluation A (Pre-1980)) was “no conclusion”. The call [10] was “active; positive”, the mutagenic call [4] was “inactive; negative” and the mutagenic call (Species/Cell Type: Rabbit, Sex: Male, Assay Type: Sperm morphology, Assay Code: SPR+, Evaluation Type: Evaluation A (Pre-1980)) was “active; positive”. For the same compound, the mutagenic call (Species/Cell Type: Rat, Sex: Male, Assay Type: Sperm morphology, Assay Code: SPA+, Evaluation Type: Evaluation A (Pre-1980)) was “active; positive”, the mutagenic call [5] was “inactive; negative” and the mutagenic call (Species/Cell Type: Saccharomyces cerevisiae, Assay Type: Mitotic recombination or gene conversion, Assay Code: YEH+, Evaluation Type: Evaluation A (Pre-1980)) was “active; positive”. For the same compound, the mutagenic call [12] was “no conclusion”, the mutagenic call (Species/Cell Type: Salmonella typhimurium, Assay Type: Forward and reverse gene mutation, host-mediated assay, Assay Code: HMA-, Evaluation Type: Evaluation A (Pre-1980)) was “inactive; negative” and the mutagenic call (Species/Cell Type: Syrian hamster embryo (SA7/SHE) cells, Assay Type: Cell transformation, viral enhanced, Assay Code: CT7+, Evaluation Type: Evaluation A (Pre-1980)) was “active; positive”.
In the case of `O=C(OOC(=O)c1ccccc1)c1ccccc1`, the mutagenic call [13] is reported as “no conclusion”.
`CC(=O)Nc1ccc2c(c1)Cc1cccc(O)c1-2` was tested, and the mutagenic call (Species/Cell Type: Escherichia coli polA (W3110 vs P3478), Assay Type: Rec-assay, DNA effects (bacterial DNA repair), Assay Code: RE2+, Evaluation Type: Evaluation A (Pre-1980)) was “active; positive”, the mutagenic call [13] was “no conclusion” and the mutagenic call (Species/Cell Type: Human diploid fibroblasts, Assay Type: Unscheduled DNA synthesis (UDS) in vitro, DNA effects, Assay Code: UDH-, Evaluation Type: Evaluation A (Pre-1980)) was “inactive; negative”. For the same compound, the mutagenic call (Species/Cell Type: Saccharomyces cerevisiae, Assay Type: Mitotic recombination or gene conversion, Assay Code: YEH-, Evaluation Type: Evaluation A (Pre-1980)) was “inactive; negative” and the mutagenic call [7] was “active; positive”.
With `CO[C@@H]1CC(O[C@H]2CC[C@@]3(C=O)[C@](O)(CC[C@]4(C)[C@]3(C)CC[C@]3(C)[C@@H](C5=CC(=O)OC5)CC[C@@]43O)C2)O[C@H](C)C1O[C@H]1C[C@@H](CO)[C@H](O)[C@@H](O)[C@@H]1O` (stereo partly drawn) the mutagenic call [4] was “inactive; negative”.
`CN(N=O)C(=O)Nc1ccc(Cl)cc1` was tested, and the mutagenic call [11] was “active; positive”.
In the case of `CCN(CCO)CCCNc1c2ccc(Cl)cc2nc2ccc(OC)nc12`, the mutagenic call (Species/Cell Type: Chinese hamster ovary (CHO) cells, Assay Type: Forward gene mutation at the HPRT locus, Assay Code: CHOT, Evaluation Type: Evaluation B (Post-1980)) is reported as “no conclusion”.
With `Oc1cccc2c1cc1ccc3cccc4ccc2c1c34` the mutagenic call (Species/Cell Type: Chinese hamster lung (V79) cells, Assay Type: Forward gene mutation at the HPRT or ouabain locus, Assay Code: V79-*, Activation: With metabolic activation, Evaluation Type: Evaluation A (Pre-1980)) was “inactive; negative”, the call [3] was “no conclusion” and the mutagenic call [12] was “no conclusion”.
